89 compounds from a melting point compilation (Tetko et al.; mined from patent text by program, amines drawn as free bases though some values may be those of a salt) can be followed below.

SMILES strings stand for the structures.

As a reminder, the melting point is the temperature, or range, at which the solid turns liquid. `Cc1cc(CC2(Cc3ccncc3)c3cccnc3-c3ncccc32)cc(C)n1` showed a melting point of more than 240 °C.
Under `CCOC(=O)c1nnn[nH]1` stands 86 to 90 °C.
Under `COC(=O)c1c(I)cccc1Nc1ccccc1C(=O)O` stands 191 to 193 °C; under `O=C(O)C(F)c1cc(F)cc(F)c1` (centres undefined), 90 to 110 °C; under `CCOC(=O)c1cc(=O)c(C(=O)c2ccccc2)co1`, 84 to 86 °C.
To `CN(c1cccc2cc(C3=NCC4(CCOCC4)S3)[nH]c12)S(=O)(=O)c1cccs1` belongs 189 to 191 °C.
Regarding `CN1CCN(NC(=O)c2cc([N+](=O)[O-])cc3c2OCCO3)CC1`, the melting point came to 210 °C.
In the case of `CC1(C)OC(=O)C(C(=O)Nc2ccc(C(F)(F)F)cc2)=C(O)O1`, the melting point is 206 to 208 °C.
Under `Cc1c(C#N)sc(Br)c1Br` stands 77 to 80 °C; under `CC(C)(C)C1(O)CCN(C(=O)C2c3ccccc3CCc3ccccc32)CC1`, 189 to 190 °C.
Under `CC(C)CC(=O)Nc1cccc(-c2ccnc3c(-c4ccc5[nH]ccc5c4)cnn23)c1` stands 167 to 169 °C; under `CNc1ccc(N2CCC(C)CC2)c(C(=O)c2ccc(Cl)cc2)c1`, 177 °C.
To `CS(=O)c1ccc(-n2cnc3ccc(-c4nnc(S)o4)cc32)cc1` (centres undefined) belongs 299 to 300 °C.
On to `NC(N)=Nc1nc(-c2nc(N)sc2C=NS(N)(=O)=O)cs1`, for which the melting point was more than 300 °C.
`COc1ccc(CC(=O)O)cc1OC1CCCC1` showed a melting point of 79 to 80 °C.
Under `Cc1ccc(NC(=O)N[C@@H]2N=C(c3ccccc3)c3ccccc3N(C)C2=O)cc1` stands 233 to 235 °C; under `O=CC1CC1(c1ccccc1)c1ccccc1` (centres undefined), 71 to 73 °C.
To `O=C1Nc2ccc(F)c(F)c2C(=O)N2CC[C@@H]12` belongs more than 250 °C.
Under `CCOC(=O)NC1CCCCn2c1nc(-c1ccncn1)cc2=O` (centres undefined) stands 168 to 170 °C; under `NS(=O)(=O)Cc1cccc(NC(=O)c2cnn3c(C(F)(F)F)cc(-c4ccc(C(F)(F)F)cc4)nc23)c1`, 298 °C.
Turning to `COc1nc(C)c(C)nc1NC(=O)N1CCN(c2ccc(C(C)=O)cc2)CC1`, the melting point lay in the range of 166 to 168 °C.
Take `COC(=O)c1ccccc1S(=O)(=O)NC(=Nc1nc(C)cc(OC)n1)SC`: the melting point is 143 to 144 °C.
Under `COc1ccc2c(c1)c(C(C)=O)cn2C` stands 167 to 168 °C.
Compound `N#CCCNNC(=S)c1ccc(OCc2ccccc2)cc1` gave a melting point of 135 °C.
To `CCOC(=O)c1c(NCc2ccccc2)nc2ccc(Br)cc2c1Cl` belongs 163 to 165 °C; to `NCc1cccc(CNC(N)=O)c1`, 127 to 129 °C.
In the case of `CC(C)c1ccc(OCCCN2CCN(c3ccc(Cl)nn3)CC2)cc1`, the melting point is 125 to 127 °C.
Under `CC1(C)CC(=O)C(C(=O)Nc2ccc(Cl)c(C(F)(F)F)c2)C(=O)C1` stands 128 to 131 °C; under `CCOc1nc2cc(C)nn2c2ccncc12`, 156 °C.
To `CCOC(=O)C1CCc2[nH]c3ccc(F)cc3c2C1` (centres undefined) belongs 115 to 117 °C; to `NC(=O)OC[C@H](Cc1ccccc1)NC(=O)OCc1ccccc1`, 121 to 128 °C.
Under `Cc1c(C#N)ncn1-c1cccc(O)c1` stands 205 to 207 °C; under `CC(=O)Nc1ccc(-c2cc(C(=O)c3cccnc3)sc2N2CCOCC2)cc1`, 144 °C; under `CC1(c2ccccc2)CN(c2ccnc(NC(=O)NCc3ccccn3)c2)C(=O)O1` (centres undefined), 194 to 195 °C.
For the compound `Cc1ccc(NCC2CCN(C(C)C3CC3)CC2)c(C(=O)Nc2ccc(Cl)cn2)c1` (centres undefined), the melting point is 79 to 81 °C.
In turn, `COC(=O)c1c(C(C)(C)O)nc(C(C)OC)n1Cc1ccc(-c2ccccc2-c2nnnn2C(c2ccccc2)(c2ccccc2)c2ccccc2)cc1` (centres undefined) registered a melting point of 131 to 133 °C.
Under `CSC1Oc2ccccc2C1=O` (centres undefined) stands 81 to 82 °C; under `CCOC(=O)C1CCC2(c3cc(OC)c(OC)cc3CCN2C(=O)CCN(C)C)C(C2c3cc(OC)c(OC)cc3CCN2CC)C1` (centres undefined), 154 to 156 °C.
`CC(C)Oc1ccc(CCCOc2cc(CCC(=O)O)n(C)n2)c(Oc2ncc(C(F)(F)F)cc2Cl)c1` showed a melting point of 88 to 89 °C.
To `O=C1CCC(c2ccc(O)cc2)CC1` belongs 165 to 166 °C; to `Cc1nc(N2CCN(Cc3csc4ccc(Cl)cc34)C2=O)sc1C(=O)NCc1cccnc1`, 185 to 187 °C.
To `CNCc1cc2cc(Nc3nc(N)n(C(=O)c4cccc(C)c4)n3)ccc2o1` belongs 128 to 131 °C; to `O=C(NCCOc1ccc(CC(Oc2ccccc2)C(=O)O)cc1)c1ccc(-c2ccc(F)cc2)cc1` (centres undefined), 195 to 196 °C.
Under `CCOC(=O)C1(CC(=O)Nc2cccnc2)N=C(c2ccc(Cl)cc2)c2c(sc(C)c2C)-n2c(C)nnc21` (centres undefined) stands 133 to 135 °C; under `O=c1nc(Cl)cnn1-c1cc(Cl)cc(Cl)c1`, 148 to 149 °C.
`Cc1cc2cc(OCCCCBr)ccc2[nH]1` displayed a melting point of 77 to 79 °C.
To `CC(C)[C@@H](NC(=O)c1cnc(N2CCC(N3C(=O)OCc4ccccc43)CC2)c(Cl)c1)C(N)=O` belongs 140 to 143 °C; to `COC[C@H](C)N1CCc2sc(Nc3ncc(F)cn3)nc2-c2c[nH]nc21`, 249 to 251 °C.
Turning to `CCCC(NC(=O)Nc1cccc(C)c1)C(=S)N(CC(=O)OC(C)(C)C)c1ccccc1` (racemic), the melting point was found to be 142 °C.
Under `Cc1cc(C)n(-c2nc(Nc3ccc(C(F)(F)F)cc3)c3ccccc3n2)n1` stands 219 to 220 °C.
Under `COc1cc(C(=N)NO)ccc1-c1cc(-c2ccc(C(=N)NO)cc2OC)on1` stands 203 to 204 °C; under `Cc1cc(Oc2ccc3nc(COc4ccc(CC5SC(=O)NC5=O)cc4)n(C)c3c2)cc(C)c1N` (centres undefined), 209 to 211 °C; under `C=C(C)COC1CC2C3CCC4=CC(=O)C=CC4(C)C3(F)C(O)CC2(C)C1(O)C(=O)CCl` (centres undefined), 238 to 240 °C.
Under `Cc1cc(-c2cn(-c3cccc(OCCn4ccnc4)c3)c3ncnc(N)c23)ccc1OCc1ccccc1` stands 158 to 160 °C; under `CCc1ccc2c(c1)C(=O)N(CCCCN1CCC(n3c(=O)oc4ccccc43)CC1)S2(=O)=O`, 165 to 168 °C.
Compound `O=C1Nc2cc(Cl)c(Cl)cc2C1=O` gave a melting point of 271 to 272 °C.
Under `N#Cc1c(N)oc2c1c(Cc1ccccc1)c(O)c1ccccc12` stands 224 to 225 °C.
To `CCCn1c(Cl)cc2cnc(C)n2c1=O` belongs 125 to 126 °C; to `Cc1cn(C(C)C(=O)N2CCCC2)nc1-c1ccccc1` (centres undefined), 72 to 74 °C; to `O=C(O)COc1cccc2c1Cc1sc(SCc3ccccc3)nc1-2`, 166 to 169 °C.
Under `CC(C)(NS(=O)(=O)c1ccccc1)c1ccccc1` stands 114 to 115 °C; under `CC(C)(C)NC(=O)N1C(=O)C(C(=O)c2cccs2)c2ccc(Cl)cc21` (centres undefined), 160 to 162 °C.
Consider `FC(F)(F)c1ccc2nc(N3CCN(c4c(Cl)cccc4Cl)CC3)[nH]c2c1`, for which the melting point lay within 263 to 265 °C.
Under `CCOc1ccnc(CSc2nc3ccc(C(F)(F)F)cc3[nH]2)c1C` stands 173 to 177 °C; under `CN(c1ccc(F)c(C(F)(F)F)c1)c1nccc(-c2ccc(F)c(C(F)(F)F)c2)n1`, 83 to 84 °C.
To `O=C1CNCc2[nH]c3ccccc3c21` belongs 220 to 233 °C.
To `O=C(/C=C/c1cccc(S(=O)(=O)N2CCN(CC(c3ccccc3)c3ccccc3)CC2)c1)NO` belongs 117 °C; to `CN(C)S(=O)(=O)c1ccc(NC(=O)C2(C)CC2)cc1C(F)(F)F`, 153 to 156 °C; to `O=C(O)Cc1ccc(OCCNC(=O)C2Cc3ccccc3N2S(=O)(=O)c2ccc(-c3cc(F)ccc3Cl)cc2)cc1` (centres undefined), 78 to 84 °C.
As for `N#Cc1cc(C(=O)NN2CCOCC2)ccc1O`, the melting point lay within 238 to 240 °C.
To `Fc1ccc(CNc2nc3ccccc3n2-c2ccc(F)c(F)c2)cc1F` belongs 158 to 160 °C; to `CCOC(=O)C1=C[C@@H](OC(CC)CC)[C@H](NC(C)=O)[C@@H](NC(=O)OC(C)(C)C)C1`, 144 to 145 °C.
Under `COC(=O)c1c(NC(C)=O)sc2c1CCC(c1ccccc1)C2` (centres undefined) stands 116 to 117 °C.
Under `NC(=O)CNC(=O)c1cccc(-c2cccc3sc(Cc4ccc(F)c(F)c4)cc23)c1` stands 160 to 161 °C.
For `O=C(O)c1cc(F)cc(-c2cccc3cc(Cc4cc(F)cc(Cl)c4)sc23)c1`, the melting point fell in the range of 168 to 170 °C.
Under `O=c1ccc(-c2ccc(OC3CCN(C4CCCC4)CC3)nc2)n[nH]1` stands 233 to 237 °C.
Compound `Cc1cc(C)nc(S(=O)(=O)Nc2c(C)cccc2Cl)n1` showed a melting point of 215 to 219 °C.
`O=c1oc2c(c(O)c1C(c1ccccc1)C1CC1)CCCCCCC2` (centres undefined) displayed a melting point of 81.7 to 84 °C.
Under `CC(=O)CC(=O)C=Cc1ccc2cc[nH]c2c1` stands 138 to 142 °C; under `CCCCCS(=O)(=O)NC(=O)/C=C/c1ccc(OCCCS(C)(=O)=O)cc1Oc1ncc(C(F)(F)F)cc1Cl`, 194 to 196 °C.
To `CC1(C(=O)Nc2ccc(N3CCOC3=O)c(C(F)(F)F)c2)CC1` belongs 146 to 147 °C; to `CCOC(=O)CCNC(=O)Nc1ccncc1`, 95 °C.
To `CC(C)n1nc(-c2ccc(OCCCCl)cc2)c2sccc2c1=O` belongs 92 to 94 °C.
Compound `CC(=O)c1ccc(NS(C)(=O)=O)c(Oc2ccccc2S(C)=O)c1` (centres undefined) had a melting point of 113 to 116 °C.
Under `CC(C)OC(=O)c1cc(-c2nn(C)c(C(F)(F)F)c2CF)c(F)cc1Cl` stands 74 °C.
To `CCCCCCCCCCCCCCOc1ccc(CC(=O)OC)cc1F` belongs 38 to 40 °C; to `CC(C)(N)CNC(=O)CNC(=O)Cc1ccccc1`, 150 to 155 °C.
`NCCc1c[nH]c2ccc(C(N)=O)cc12` showed a melting point of 173 to 176 °C.
Under `COC(=O)C(C)Oc1ncn(-c2cccc(C(F)(F)F)c2)n1` (centres undefined) stands 135 to 137 °C.
